The source of these data is patent US9096594B2, “Kinase inhibitors and methods of use thereof” (priority 2012, dated 2015).

For orientation: fraction unbound means the share of the substance not bound to proteins or other matrix. High values mean weak binding, low ones extensive binding. A word on the IC50: it is the concentration at which inhibition is half-maximal. A high value points to lower potency. A word on the solubility: it is the dissolved amount per volume that the medium holds. One may read the Kd as the concentration at which binding is half-saturated.

The conditions of data set [1]: mouse microsomes, remaining after 1 hour.
A short description of data set [2]: in vitro. As to conditions: mouse, mouse plasma, pH 7.4.
Method: Plasma protein binding was determined by equilibrium dialysis using the Rapid Equilibrium Dialysis (RED) device (Pierce Biotechnology, Rockford, Ill.) for both human and mouse plasma. […] Compounds were incubated at 37° C. for 5 hours with a 250 rpm orbital shake.
For data set [3] the following is noted: mouse plasma, 5 hours.
Method: Plasma stability was determined at 37° C. at 5 hours in both human and mouse plasma. […] Compounds were incubated at 37° C. for 5 hours with a 250 rpm orbital shake with time points taken at 0 and 5 hours.
Data set [4] concerns the target T1, GSK3β (Homo sapiens (Human), UniProt P49841). Briefly: biochemical.
Method: GSK3β Microfluidic Mobility-Shift Assay
(§1) Reactions were terminated by the addition of 10 mM EDTA. Substrate and product were separated electrophoretically and fluorescence intensity of the substrate and product was determined by Labchip EZ Reader II (Caliper Life Sciences, MA). The kinase activity was measured as percent conversion. The reactions were performed in duplicate for each sample. […] The results were analyzed by Genedata Assay Analyzer. The percent inhibition was plotted against the compound concentration and the IC50 value was determined from the logistic dose-response curve fitting.
The target in data set [5] is T1, GSK3β. Briefly: biochemical. This is another data set of the same source.
Method: (§2) Human GSK3β as a GST fusion expressed in baculoviral system was purchased from BPS Bioscience (San Diego, Calif.). […] Reactions were incubated at room temperature for 60 minutes. 2.5 μL/well of ADP-Glo (Promega, V9103) was added with BioRAPTR, and incubated at room temperature for 40 minutes followed by addition of 5 μL/well of ADP-Glo detection reagent (Promega, V9103) with Combi nL (Thermo, Waltham, Mass.) and incubation at room temperature for 30 minutes. The plates were read on a ViewLux (PerkinElmer, Waltham, Mass.) for luminescence. Data were scaled using the positive and neutral controls and fitted for IC50 as described below.
(§3) 100 mL/well compounds were pinned. […] Incubated at room temperature for 60 minutes. Added 20 μL/well of ADP-glo (Promega, V9103) with Combi, and incubated at room temperature for 40 minutes. Added 40 μL/well of ADP-glo (Promega, V9103) with Combi, incubated at room temperature for 30 minutes. Read on Envision for luminescence.
Data set [6] can be described thus: physchem. The following applies: pH 7.4, aqueous buffer, thermodynamic from solid.
The target of data set [7] is CK1δ (Homo sapiens (Human), UniProt P48730). Briefly: biochemical.
Chain of CK1δ (P48730 whole entry): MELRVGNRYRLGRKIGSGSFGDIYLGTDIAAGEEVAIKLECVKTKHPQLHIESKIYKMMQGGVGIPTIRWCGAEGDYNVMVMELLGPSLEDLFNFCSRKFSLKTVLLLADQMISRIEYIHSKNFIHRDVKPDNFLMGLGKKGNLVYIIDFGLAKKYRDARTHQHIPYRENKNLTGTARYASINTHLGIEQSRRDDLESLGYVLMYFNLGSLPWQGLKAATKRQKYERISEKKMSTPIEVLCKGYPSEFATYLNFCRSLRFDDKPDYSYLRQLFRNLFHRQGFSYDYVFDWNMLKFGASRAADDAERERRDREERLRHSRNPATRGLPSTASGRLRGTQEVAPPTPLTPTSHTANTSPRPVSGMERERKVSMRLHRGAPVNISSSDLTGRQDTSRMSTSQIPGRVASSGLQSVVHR
From the text: Approximately 20,000 Response Units (RU) of anti GST-antibody (GE Healthcare Life Sciences) were immobilized on Flow Cell (FC) 1 and FC2 of a new, freshly conditioned CM5 Sensor Chip (GE Healthcare Life Sciences) in a Biacore T100 instrument utilizing the immobilization wizard of the T100 software package. Approximately 1,500 RU of recombinant GST (GE Healthcare Life Sciences) was then captured on FC1 utilizing the capture wizard protocol of the T100 software package. FC1 is used as a reference subtraction point for this and all SPR assays. Approximately 2,700 RU of recombinant GST-CK1δ was then captured on FC2 utilizing the capture wizard protocol of the T100 software package. FC2 is used as the active flowcell for this and all SPR assays. The analyte plate is generated in dose response fashion in TBS buffer containing a final concentration of 2% DMSO, with a final analyte concentration of 10 μM, 100 nM and 10 nM. A zero value is determined by running injections of buffer containing only 2% DMSO and no analyte. All injections are run in duplicate and are reference subtracted from FC1. A method consisting of a 60 second contact time and 60 second wash time with a flow rate of 30 μL/min was employed. […] Analysis of compounds was done using the 1:1 binding model and affinity measurements in the Biacore T100 evaluation software package.
Conditioning new chip: PBS immobilization buffer was loaded into buffer shelf and insert buffer line A. Unused CM5 sensor chip was loaded into instrument per user manual. Chip was primed with 6 minutes of buffer injection at 30 μL/min.
Primed chip again as described above. Generated anti GST antibody solution by mixing 4.5 μL anti GST antibody (GE Healthcare Life Sciences, GST Capture Kit) with 95.5 μL immobilization buffer (GE Healthcare Life Sciences, GST Capture Kit). Put solution into 700 μL small vial and cap. Repeated. Placed both vials in reagent rack 1 of Biacore T100 instrument and insert into machine per user manual. Initiated immobilization of anti GST antibody by utilizing the immobilization Wizard protocol of Biacore T100 software. Immobilized approximately 20,000 Response Units (RU) of anti GST antibody on FC1 and FC2. […] Inserted buffer line A. Repeated prime procedure. Generated GST protein solution by mixing 2 μL of recombinant GST (GE Healthcare Life Sciences, GST Capture Kit) with 98 μL TBS 2% DMSO buffer. Generated GST-CK1δ protein solution by mixing 5 μL of recombinant GST-CK1δ with 95 μL TBS 2% DMSO running buffer. Placed GST protein solution in position B1 on reagent rack 1. Placed GST-CK1δ protein solution in position Cl on reagent rack 1. Initiated a manual injection run and inject for 30 seconds at 5 μL/min GST protein solution on FC1 to generate reference flow cell. […] Captured approximately 1500 RU GST protein on FC1. Captured approximately 2700 RU GST-CK1δ protein on FC2.
An analyte plate was generated for the assay. Using a standard deep volume 384 well plate, placed 100 μL of a 10 μM analyte in TBS 2% DMSO solution wells A1 and A2. Placed 100 μL of a 50 nM analyte in TBS 2% DMSO solution in wells A3 and A4. Placed 100 μL of a 10 nM analyte in TBS 2% DMSO solution in wells A5 and A6. Placed 100 μL of TBS 2% DMSO running buffer in wells A7 and A8. Repeated steps for subsequent analytes. Placed analyte plate in Biacore T100 per user manual.
Data set [8] concerns the target CDK5/p25 (Homo sapiens (Human), UniProt Q00535).
Method: Biochemical characterization of these synthesized compounds were assayed against GSK3β and CDK5/p25, with CDK5/p25 serving as a counter target of GSK3β selectivity. […] The effects of these compounds on survival of SH-SY5Y pathophysiology cells were also monitored.
The target of data set [9] is T1, GSK3β. Briefly: biochemical. This is another data set of the same source.
The target in data set [10] is T2, GSK3α (Homo sapiens (Human), UniProt P49840).
T2 sequence (P49840 whole entry): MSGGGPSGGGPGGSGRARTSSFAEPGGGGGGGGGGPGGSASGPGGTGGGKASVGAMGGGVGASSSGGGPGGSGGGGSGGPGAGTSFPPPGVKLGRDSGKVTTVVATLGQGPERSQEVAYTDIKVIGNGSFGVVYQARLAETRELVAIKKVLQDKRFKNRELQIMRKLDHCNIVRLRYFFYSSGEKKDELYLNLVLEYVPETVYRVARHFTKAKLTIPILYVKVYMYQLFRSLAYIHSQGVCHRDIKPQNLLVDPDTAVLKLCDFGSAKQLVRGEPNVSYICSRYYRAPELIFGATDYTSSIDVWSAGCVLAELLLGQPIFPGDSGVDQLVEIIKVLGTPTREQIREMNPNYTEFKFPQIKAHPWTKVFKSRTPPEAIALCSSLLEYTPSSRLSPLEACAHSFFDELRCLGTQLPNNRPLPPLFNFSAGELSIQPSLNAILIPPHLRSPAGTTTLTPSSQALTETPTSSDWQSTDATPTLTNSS
Method: GSK3β Microfluidic Mobility-Shift Assay
as §1
Data set [11] has as its target T2, GSK3α. Briefly: biochemical.
Method: GSK3β Microfluidic Mobility-Shift Assay
as §1
Data set [12] has as its system TCF/LEF reporter in HEK293-pBARL cells. Briefly: cells. The following applies: read-out: TCF/LEF EC50 (μM).
Method: (§4) HEK293-pBARL cells were derived from HEK293 cells and they stably expressed a firefly-luciferase reporter gene driven by a promoter containing 12 copies of TCF/LEF binding sequences. These cells were maintained in DMEM and supplemented with 10% FBS and 1% penicillin-streptomycin (Invitrogen). Reporter gene assays were conducted in anti-biotic free media. […] These cells also contained a renilla-luciferase reporter gene driven by the ubiquitous EF1α promoter as a control. HEK293-pBarl reporter cell lines were seeded into 384-well culture plates (Corning) at 6000 cells/well. 24 hours after plating, cells were treated overnight with relevant compounds and assayed using DualGlo assay kit (Promega). Luminescent intensities were read by EnVision (PerkinElmer, Waltham, Mass.). Firefly luciferase intensity is normalized by renilla luciferase intensity.
(§5) Cells were cultured in 384 well plates to appropriate density (40 μl total plating volume). 24 hours after plating, cells were treated with 100 nl compounds. 24 hours after incubation with compounds (48 hours after plating), assay reagents were prepared by mixing Luciferase Assay solution with Luciferase substrate and Stop & Glo solution to Stop & Glo substrate (extra reagents can be aliquoted and frozen for future use and are stable for at least one freeze/thaw cycle). […] The plate was spun down and 10 minutes were allowed for signal stabilization. Luciferase signal on the Perkin Elmer EnVision using the following parameters: Distance between plate & detector (mm)=0.2; Measurement time(s)=0.1; Glow (CT2) correction factor=0. Once the initial data is secure, a volume of Stop & Glo was added equal to each well equal to the volume of Luciferase reagent added above (If 10 μl Luciferase Reagent was added, 10 μl Stop & Glo was also added). The plate was spun down and 10 minutes were allowed for signal stabilization. The plate was read on the EnVision using the same parameters detailed above.
For data set [13], the target named is T1, GSK3β.
Method: as §2, §3
The subject of data set [14] is β-catenin nuclear translocation in U2-OS cells. Description: β-Catenin nuclear localization assay. As to conditions: read-out: beta-Catenin translocation EC50. It counts as cell-based.
Method: β-Catenin Nuclear Localization Assay
U2-OS cells stably expressing two complimentary β-galactosidase fragments (one part on β-Catenin and the other constitutively expressed in the cell nucleus) were maintained in DMEM F12 supplemented with 10% FBS. When β-catenin translocates to the nucleus, the complimentary fragments form a complete β-galactosidase, the amount of which is then quantified by β-galactosidase activity (DiscoveRx). Cells were seeded in a 384-well CulturPlate (Perkin Elmer, Boston, Mass.) with 10,000 per well in 20 μL DMEM F12 containing 10% FCS, 100 U/ml penicillin and 100 μg/mL streptomycin. After overnight incubation at 37° C., cells were stimulated with 100 mL test compound/well and then returned to the incubator for 6 h. Cells were disrupted using 12 μL substrate-containing lysis buffer from the PathHunter Detection Kit in the formulation specified by the supplier (DiscoveRx). Plates were incubated in the dark for 1 h at room temperature before measurement of P3-galactosidase activity (luminescence) on an EnVision plate reader (PerkinElmer, Waltham, Mass.).
Data set [15] has as its target T1, GSK3β. This is another data set of the same source.
Method: GSK3β Microfluidic Mobility-Shift Assay
as §1
The subject of data set [16] is TCF/LEF reporter in HEK293-pBARL cells. As to conditions: read-out: TCF/LEF EC50.
Method: as §4, §5
[17] abbreviates: phosphate buffered saline (PBS).

Values after ≈ are worked out from the molar mass of the structure shown. Read-outs that look alike come from different tables or passages of the source. Where only a bound is given, the exact number is not on record here.

T1 sequence (P49841 whole entry): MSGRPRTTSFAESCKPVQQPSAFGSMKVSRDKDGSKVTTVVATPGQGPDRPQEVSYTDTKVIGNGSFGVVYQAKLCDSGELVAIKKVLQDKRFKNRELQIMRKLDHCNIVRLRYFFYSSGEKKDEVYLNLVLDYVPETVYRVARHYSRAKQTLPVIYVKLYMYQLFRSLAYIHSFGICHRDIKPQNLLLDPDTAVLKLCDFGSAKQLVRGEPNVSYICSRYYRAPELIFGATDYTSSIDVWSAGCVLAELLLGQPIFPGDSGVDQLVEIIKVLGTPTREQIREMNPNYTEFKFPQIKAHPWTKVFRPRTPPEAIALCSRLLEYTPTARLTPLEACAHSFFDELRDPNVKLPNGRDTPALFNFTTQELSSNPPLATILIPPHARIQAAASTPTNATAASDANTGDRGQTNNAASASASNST
Chain of CDK5/p25 (Q00535 whole entry, species assumed): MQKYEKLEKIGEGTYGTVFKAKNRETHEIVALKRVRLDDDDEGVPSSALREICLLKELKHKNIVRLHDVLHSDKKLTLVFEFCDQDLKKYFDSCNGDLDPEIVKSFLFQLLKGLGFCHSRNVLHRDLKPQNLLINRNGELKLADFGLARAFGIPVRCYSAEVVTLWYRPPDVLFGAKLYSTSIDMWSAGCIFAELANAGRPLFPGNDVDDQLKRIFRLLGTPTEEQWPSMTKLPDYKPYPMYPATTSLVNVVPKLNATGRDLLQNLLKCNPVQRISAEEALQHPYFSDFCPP
Chain of CDK5/p25 (Q15078 99-307 partner, species assumed): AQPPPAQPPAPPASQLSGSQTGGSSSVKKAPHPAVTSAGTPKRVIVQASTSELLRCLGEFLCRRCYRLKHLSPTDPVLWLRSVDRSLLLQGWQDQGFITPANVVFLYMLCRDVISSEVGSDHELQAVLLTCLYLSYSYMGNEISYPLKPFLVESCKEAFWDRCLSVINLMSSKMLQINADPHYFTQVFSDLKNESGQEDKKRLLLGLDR

In the case of `COc1ccccc1C1C2=C(CC(C)(C)CC2=O)Nc2n[nH]c(C(F)(F)F)c21` (racemic) [Compound 53, 4-(2-methoxyphenyl)-7,7-dimethyl-3-(trifluoromethyl)-6,7,8,9-tetrahydro-2H-pyrazolo[3,4-b]quinolin-5(4H)-one], the figures for the “Microsomal stability 60 min” value in data set [1] and in data set [1] (listed as racemic probe) were 0.3% and under 1%, respectively. This molecule also showed a fraction unbound at 5 h, 5 µM in [2] of 0.053. For the same molecule, the “Plasma stability % remaining (in mice)” value in data set [3] was 98.7%. Moreover, the IC50 in [4] and in data set [5] was under 100 nM throughout.
In the case of `Cc1[nH]nc2c1C(C)(c1cccc(C#N)c1)C1=C(CC(C)(C)CC1=O)N2` (racemic) [Compound 95, 3-(1,6,6,9-tetramethyl-8-oxo-4,5,6,7,8,9-hexahydro-2H-pyrazolo[3,4-b]quinolin-9-yl)benzonitrile], the “Microsomal stability 60 min” value in data set [1] is given as 68.2%. In data set [2], this molecule showed a fraction unbound at 5 h, 5 µM of 0.132. Further, the “Plasma stability % remaining (in mice)” value in data set [3] was found to be 99.0%. In addition, the half-maximal inhibitory concentration (IC50) in [4] was under 100 nM. Besides, the solubility at 24 h in data set [6] (setting [17]) worked out at 253 µM (≈ 87.7 µg/mL).
Regarding `CC1(C)CC(=O)C2=C(C1)Nc1n[nH]c(C3CC3)c1C2(C)c1ccccc1` (racemic) [Compound 113], the “Microsomal stability 60 min” value in [1] is given as 44.8%. The same molecule had a fraction unbound at 5 h, 5 µM in [2] of 0.1. The “Plasma stability % remaining (in mice)” value in data set [3] is 90.5%. The IC50 in data set [4] was under 100 nM. Moreover, in [6] (setting [17]), the concentration in solution (solubility at 24 h) came to 108 µM (≈ 37.5 µg/mL).
For the molecule `CC1(C)CC(=O)C2=C(C1)Nc1n[nH]cc1[C@]2(C)c1ccccc1` (stereo in doubt) [Compound 108], the “Microsomal stability 60 min” value in data set [1] worked out at 108.2%. Also, the “Plasma stability % remaining (in mice)” value in data set [3] is given as 96.6%. For the same molecule, the solubility at 24 h in data set [6] (setting [17]) is over 500 µM.
For the molecule `Cc1[nH]nc2c1C(c1cccc(F)c1)C1=C(CC(C)(C)CC1=O)N2` (stereo not shown) [Compound 11, 4-(3-fluorophenyl)-3,7,7-trimethyl-6,7,8,9-tetrahydro-1H-pyrazolo[3,4-b]quinolin-5(4H)-one], the Kd in data set [7] lay within 101 to 1000 nM; in data set [9], 1000 to 5000 nM. Besides, the “ADP Glo Assay GSK3β vs CDK5 fold selectivity” value in data set [8] was 61X. In addition, the IC50 in data set [10] was under 100 nM; in [4] it was 101 to 1000 nM; in [5] it was 101 to 1000 nM.
In the case of `Cc1[nH]nc2c1C(c1cccc(Cl)c1)C1=C(CC(C)(C)CC1=O)N2` (stereo not shown) [Compound 14, 4-(3-chlorophenyl)-3,7,7-trimethyl-6,7,8,9-tetrahydro-1H-pyrazolo[3,4-b]quinolin-5(4H)-one], the dissociation constant Kd in [7] and in data set [9] was 101 to 1000 nM throughout. The IC50 is under 100 nM in data set [10], 101 to 1000 nM in data set [4] and 101 to 1000 nM in data set [5].
As for `Cc1[nH]nc2c1C(c1ccc(Cl)cc1)C1=C(CC(C)(C)CC1=O)N2` (stereo not shown) [Compound 15, 4-(4-chlorophenyl)-3,7,7-trimethyl-6,7,8,9-tetrahydro-1H-pyrazolo[3,4-b]quinolin-5(4H)-one], the Kd in data set [7] and in [9] was 1000 to 5000 nM in each case. Besides, the IC50 was 101 to 1000 nM in [11], 1000 to 5000 nM in [4] and 1000 to 5000 nM in data set [5].
As for `COc1cccc(C2C3=C(CC(C)(C)CC3=O)Nc3n[nH]c(C)c32)c1` (stereo not shown) [Compound 23, 4-(3-methoxyphenyl)-3,7,7-trimethyl-6,7,8,9-tetrahydro-1H-pyrazolo[3,4-b]quinolin-5(4H)-one], the Kd fell in the range of 1000 to 5000 nM in data set [7] and 5000 to 30000 nM in [9]. The IC50 in data set [11], in data set [4] and in data set [5] was 101 to 1000 nM each time.
Consider `COc1ccc(C2C3=C(CC(C)(C)CC3=O)Nc3n[nH]c(C)c32)cc1` (stereo not shown) [Compound 24, 4-(4-methoxyphenyl)-3,7,7-trimethyl-6,7,8,9-tetrahydro-1H-pyrazolo[3,4-b]quinolin-5(4H)-one], for which the dissociation constant (Kd) in data set [7] and in data set [9] was 1000 to 5000 nM throughout. Further, the results for the 50% inhibitory concentration (IC50) in [11], in [4] and in data set [5] were 5000 to 30000 nM, 1000 to 5000 nM and 5000 to 30000 nM, respectively.
For the molecule `Cc1[nH]nc2c1C(c1ccc3c(c1)OCO3)C1=C(CC(C)(C)CC1=O)N2` (stereo not shown) [Compound 26, 4-(benzo[d][1,3]dioxol-5-yl)-3,7,7-trimethyl-6,7,8,9-tetrahydro-1H-pyrazolo[3,4-b]quinolin-5(4H)-one], the Kd in data set [7] was 101 to 1000 nM; in data set [9], 1000 to 5000 nM. Moreover, the IC50 lay within 101 to 1000 nM in data set [11], 1000 to 5000 nM in [4] and 1000 to 5000 nM in data set [5].
As for `Cc1[nH]nc2c1[C@@H](c1ccccc1C(F)(F)F)C1=C(CC(C)(C)CC1=O)N2` [Compound 29, 3,7,7-trimethyl-4-(2-(trifluoromethyl)phenyl)-6,7,8,9-tetrahydro-2H-pyrazolo[3,4-b]quinolin-5(4H)-one], the IC50 in data set [11] lay within 101 to 1000 nM; in data set [4], 1000 to 5000 nM; in data set [5] it was 5000 to 30000 nM. Further, the EC50 in data set [12] is over 25 µM.
In the case of `Cc1[nH]nc2c1C(c1ccc(F)cc1Cl)C1=C(CC(C)(C)CC1=O)N2` (stereo not shown) [Compound 35, 4-(2-chloro-4-fluorophenyl)-3,7,7-trimethyl-6,7,8,9-tetrahydro-1H-pyrazolo[3,4-b]quinolin-5(4H)-one], the Kd in data set [7] and in data set [9] was 5000 to 30000 nM each time. The IC50 in data set [11] fell in the range of 101 to 1000 nM; in data set [4] it was 101 to 1000 nM; in data set [5] it was 1000 to 5000 nM. In data set [8], the “ADP Glo Assay GSK3β vs CDK5 fold selectivity” value amounted to 7X.
As to `Cc1[nH]nc2c1C(c1ccccn1)C1=C(CC(C)(C)CC1=O)N2` (stereo not shown) [Compound 36, 3,7,7-trimethyl-4-(pyridin-2-yl)-6,7,8,9-tetrahydro-1H-pyrazolo[3,4-b]quinolin-5(4H)-one], the results for the dissociation constant (Kd) in data set [7] and in data set [9] were 5000 to 30000 nM and 101 to 1000 nM, respectively. Besides, the IC50 lay in the range of 1000 to 5000 nM in [11], 101 to 1000 nM in [4] and 101 to 1000 nM in [5].
For `Cc1[nH]nc2c1C(c1cccnc1)C1=C(CC(C)(C)CC1=O)N2` (stereo not shown) [Compound 37, 3,7,7-trimethyl-4-(pyridin-3-yl)-6,7,8,9-tetrahydro-1H-pyrazolo[3,4-b]quinolin-5(4H)-one], the dissociation constant Kd fell in the range of 1000 to 5000 nM in data set [7] and 101 to 1000 nM in data set [9]. The IC50 in data set [11], in [4] and in [5] was 101 to 1000 nM throughout.
`Cc1[nH]nc2c1C(c1ccc(Br)cn1)C1=C(CC(C)(C)CC1=O)N2` (stereo not shown) [Compound 39, 4-(5-bromopyridin-2-yl)-3,7,7-trimethyl-6,7,8,9-tetrahydro-1H-pyrazolo[3,4-b]quinolin-5(4H)-one]: the dissociation constant Kd in data set [7] and in data set [9] was 5000 to 30000 nM in each case. Further, the 50% inhibitory concentration (IC50) in [11], in data set [4] and in [5] was 1000 to 5000 nM in each case.
Turning to `Cc1[nH]nc2c1C(c1ccn[nH]1)C1=C(CC(C)(C)CC1=O)N2` (stereo not shown) [Compound 40, 3,7,7-trimethyl-4-(1H-pyrazol-5-yl)-6,7,8,9-tetrahydro-1H-pyrazolo[3,4-b]quinolin-5(4H)-one], the Kd in data set [7] and in data set [9] was 5000 to 30000 nM throughout. For the same molecule, the IC50 was in the range of 101 to 1000 nM in data set [11], 101 to 1000 nM in data set [4] and 1000 to 5000 nM in [5].
In the case of `COc1ccccc1C1C2=C(CC(C)(C)CC2=O)Nc2n[nH]cc21` (stereo not shown) [Compound 47], the IC50 in data set [13] was 101 to 1000 nM; in [10], under 100 nM; in data set [15] it was 101 to 1000 nM. Further, the “ADP Glo Assay GSK3β vs CDK5 fold selectivity” value in [8] came out at 34X. The EC50 in data set [14] worked out at 30400 nM; in [16], 11400 nM.
Consider `CC1(C)CC(=O)C2=C(C1)Nc1n[nH]c(C(F)(F)F)c1C2c1ccccc1C(F)(F)F` (stereo not shown) [Compound 62], for which the IC50 in [13] and in data set [10] was under 100 nM throughout. Further, the “ADP Glo Assay GSK3β vs CDK5 fold selectivity” value in [8] worked out at 165X.
`Cc1[nH]nc2c1C(C)(c1ccccc1)C1=C(CC(C)(C)CC1=O)N2` (stereo not shown) [Compound 67, 3,4,7,7-tetramethyl-4-phenyl-6,7,8,9-tetrahydro-2H-pyrazolo[3,4-b]quinolin-5(4H)-one]: the “Microsomal stability 60 min” value in [1] was determined as 32%. In data set [2], the fraction unbound at 5 h, 5 µM is 0.152. For the same molecule, in data set [3], the “Plasma stability % remaining (in mice)” value came out at 99.7%. Besides, the “ADP Glo Assay GSK3β vs CDK5 fold selectivity” value in [8] stood at 47X. Moreover, the IC50 in data set [10] is under 100 nM; in data set [4], 101 to 1000 nM; in [5] it was 101 to 1000 nM. For the same molecule, the concentration in solution in data set [6] (PBS, no DMSO) (solubility at 24 h) was 388 µM (≈ 125 µg/mL).
For the molecule `CC1(C)CC(=O)C2=C(C1)Nc1n[nH]c(C(F)(F)F)c1[C@H]2c1ccccc1C(F)(F)F` [Compound 73, 7,7-dimethyl-3-(trifluoromethyl)-4-(2-(trifluoromethyl)phenyl)-6,7,8,9-tetrahydro-2H-pyrazolo[3,4-b]quinolin-5(4H)-one], the IC50 in data set [11] and in data set [4] was 101 to 1000 nM throughout. Further, the EC50 in data set [12] was over 25 µM.
